Measured values as given in US20120309683A1, “USE OF […] ADENYLATE CYCLASE-ACTIVATING POLYPEPTIDE (PACAP) AND PACAP ANALOGS AS ADJUNCTIVE TREATMENTS WITH INHIBITORS OF CALCINEURIN OR INHIBITORS OF THE […] TARGET OF RAPAMYCIN (mTOR) COMPLEXES” (The Administrators of the Tulane Educational Fund, priority 2010, published 2012).

Tests used:
[1] = system: HK-2 human kidney cells (human renal proximal tubule epithelial cells); experiment: Tacrolimus-induced loss of viability of HK-2 cells, lactate dehydrogenase in intact cells; type: cell-based; details: tacrolimus alone, HK-2 cells
Description: The HK-2 human kidney cells were cultured in Keratinocyte-Serum Free Medium supplemented with recombinant epidermal growth factor and bovine pituitary extract. […] Each value represents the mean plus/minus the standard error of five determinations. **p<0.01 and *p<0.05 compared to the cells treated only with tacrolimus.

IL-2 synthesis = details: cited from earlier work

Structure (SMILES): C=CC[C@@H]1/C=C(\C)C[C@H](C)C[C@H](OC)[C@H]2O[C@@](O)(C(=O)C(=O)N3CCCC[C@H]3C(=O)O[C@H](/C(C)=C/[C@@H]3CC[C@@H](O)[C@H](OC)C3)[C@H](C)[C@@H](O)CC1=O)[C@H](C)C[C@@H]2OC [tacrolimus, reference compound]
- number of viable cells [1]: large significant decrease in the number of viable cells
- potency as an inhibitor of IL-2 synthesis relative to cyclosporine A (IL-2 synthesis): about 100 -fold
